# Source: patent US9302999B2, “Substituted triazoles as herbicides” (E. I. DU PONT DE NEMOURS AND COMPANY, priority 2012, dated 2016)
# Where two headings read alike, the source gives them in different places.
# Key:
# Assay type in all cases: in vivo
# [1] = system: morningglory (Ipomoea coccinea); assay: Test C pre-/postemergence: morningglory
# Text: (§1) Seeds of plant species selected from blackgrass (Alopecurus myosuroides), bromegrass, downy (downy bromegrass, Bromus tectorum), foxtail, green (green foxtail, Setaria viridis), ryegrass, Italian (Italian ryegrass, Lolium multiflorum), winter wheat (Triticum aestivum), wild oat (Avena fatua), galium (catchweed bedstraw, Galium aparine), bermudagrass (Cynodon dactylon), surinam grass (Brachiaria decumbens), cocklebur (common cocklebur, Xanthium strumarium), corn (Zea mays), large crabgrass (Digitaria sanguinalis), woolly cupgrass (Eriochloa villosa), foxtail, giant (giant foxtail, Setaria faberii), goosegrass (Eleusine indica), johnsongrass (Sorghum halepense), kochia (Kochia scoparia), lambsquarters (Chenopodium album), morningglory (Ipomoea coccinea), nightshade (eastern black nightshade, Solanum ptycanthum), nutsedge, yellow (yellow nutsedge, Cyperus esculentus), pigweed (Amaranthus retroflexus), ragweed (common ragweed, Ambrosia elation), soybean (Glycine max), common (oilseed) sunflower (Helianthus annuus), Russian thistle (Salsola kali) and velvetleaf (Abutilon theophrasti) were planted into a blend of loam soil and sand and treated preemergence with test chemicals formulated in a non-phytotoxic solvent mixture which included a surfactant.
# (§2) At the same time, plants selected from these crop and weed species and also barley (winter barley, Hordeum vulgare), canarygrass (Phalaris minor), chickweed (common chickweed, Stellaria media) windgrass (Apera spica-venti) and deadnettle (henbit deadnettle, Lamium amplexicaule) were planted in pots containing Redi-Earth® planting medium (Scotts Company, 14111 Scottslawn Road, Marysville, Ohio 43041) comprising spaghnum peat moss, vermiculite, wetting agent and starter nutrients and treated with postemergence applications of test chemicals formulated in the same manner. Plants ranged in height from 2 to 18 cm (1- to 4-leaf stage) for postemergence treatments.
# (§3) Treated plants and controls were maintained in a greenhouse for 13 to 15 days, after which time all species were compared to controls and visually evaluated. Plant response ratings, summarized in Table C, are based on a scale of 0 to 100 where 0 is no effect and 100 is complete control. A dash (-) response means no test result.
# [2] = system: chickweed (common chickweed, Stellaria media); assay: Test C postemergence: chickweed
# Text: as §2, §3
# [3] = system: ragweed (common ragweed, Ambrosia elation); assay: Test C pre-/postemergence: ragweed
# Text: as §1, §2, §3
# [4] = system: foxtail, giant (giant foxtail, Setaria faberii); assay: Test A pre-/postemergence: foxtail, giant; conditions: Setaria faberi, 240 h; for pest or weed control at 125 g/ha: 125 g ai/ha; for pest or weed control at 500 g/ha: 500 g ai/ha
# Procedure, shortened: (§4)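 Soil medium was loam blended with sand; treatments pre- and postemergence were applied concurrently, postemergence at one- to two-leaf stage. Approximately ten days in greenhouse preceded visual comparison with untreated controls, scored 0 (no effect) to 100 (complete control).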
# [5] = system: velvetleaf (Abutilon theophrasti); assay: Test A pre-/postemergence: velvetleaf; conditions: for pest or weed control at 125 g/ha / pest or weed control at 500 g/ha: Abutilon theophrasti, 240 h; for pest or weed control at 125 g/ha: 125 g ai/ha; for pest or weed control at 500 g/ha: 500 g ai/ha; for Velvetleaf plant response rating: 1000 g ai/ha
# Procedure, shortened: as §4
# [6] = system: wheat (Triticum aestivum); assay: Test A pre-/postemergence: wheat; conditions: for plant injury at 125 g/ha / plant injury at 500 g/ha: Triticum aestivum, 240 h; for plant injury at 125 g/ha: 125 g ai/ha; for plant injury at 500 g/ha: 500 g ai/ha; for Wheat plant response rating: 1000 g ai/ha
# Procedure, shortened: as §4
# [7] = system: crabgrass, large (large crabgrass, Digitaria sanguinalis); assay: Test A pre-/postemergence: crabgrass, large; conditions: for pest or weed control at 125 g/ha / pest or weed control at 500 g/ha: Digitaria sanguinalis, 240 h; for pest or weed control at 125 g/ha: 125 g ai/ha; for pest or weed control at 500 g/ha: 500 g ai/ha; for Crabgrass, Large plant response rating: 1000 g ai/ha
# Procedure, shortened: as §4
# [8] = system: blackgrass (Alopecurus myosuroides); assay: Test C pre-/postemergence: blackgrass
# Text: as §1, §2, §3
# [9] = system: pigweed (Amaranthus retroflexus); assay: Test A pre-/postemergence: pigweed; conditions: for pest or weed control at 125 g/ha / pest or weed control at 500 g/ha: Amaranthus retroflexus, 240 h; for pest or weed control at 125 g/ha: 125 g ai/ha; for pest or weed control at 500 g/ha: 500 g ai/ha; for Pigweed plant response rating: 1000 g ai/ha
# Procedure, shortened: as §4
# [10] = Postemergence, 31 g ai/ha, scale 0 to 100 (0 no effect, 100 complete control)
# [11] = Postemergence, 62 g ai/ha, scale 0 to 100 (0 no effect, 100 complete control)
# [12] = Postemergence, 125 g ai/ha, scale 0 to 100, 0 no effect, 100 complete control
# [13] = Postemergence, 250 g ai/ha, scale 0 to 100
# [14] = Preemergence, 31 g ai/ha, scale of 0 to 100, 0 is no effect, 100 is complete control
# [15] = Preemergence, 62 g ai/ha, scale of 0 to 100, 0 is no effect, 100 is complete control
# [16] = Preemergence, 125 g ai/ha, scale 0 to 100, 0 no effect, 100 complete control
# [17] = Preemergence, 250 g ai/ha, scale 0 to 100, 0 no effect, 100 complete control
# [18] = 31 g ai/ha, scale 0 to 100 (0 no effect, 100 complete control)
# [19] = 62 g ai/ha, scale 0 to 100 (0 no effect, 100 complete control)
# [20] = 125 g ai/ha, scale 0 to 100, 0 no effect, 100 complete control
# [21] = Preemergence, 62 g ai/ha, scale 0 to 100, 0 no effect, 100 complete control
# [22] = Postemergence, visual rating on 0 to 100 scale (0 no effect, 100 complete control), approximately ten days
# [23] = Preemergence, 0 to 100 scale, 0 is no effect, 100 is complete control
smiles,measurement,setting,value
"FC(F)(F)COc1nn(-c2ccc(C(F)(F)F)cc2)nc1Cc1ccnc(C(F)(F)F)c1 [Compound 14, 4-[[5-(2,2,2-trifluoroethoxy)-2-[4-(trifluoromethyl)phenyl]-2H-1,2,3-triazol-4-yl]methyl]-2-(trifluoromethyl)pyridine]","Plant response rating, Morningglory",[1]; [10],75
same,"Plant response rating, Morningglory",[1]; [11],80
same,"Plant response rating, Morningglory",[1]; [12],80
same,"Plant response rating, Morningglory",[1]; [13],95
same,"Plant response rating, Morningglory",[1]; [14],10
same,"Plant response rating, Morningglory",[1]; [15],10
same,"Plant response rating, Morningglory",[1]; [16],55
same,"Plant response rating, Morningglory",[1]; [17],65
same,"Plant response rating, Chickweed",[2]; [18],60
same,"Plant response rating, Chickweed",[2]; [19],75
same,"Plant response rating, Chickweed",[2]; [20],75
same,"Plant response rating, Chickweed","[2]; 250 g ai/ha, scale 0 to 100",80
same,"Plant response rating, Ragweed",[3]; [10],55
same,"Plant response rating, Ragweed",[3]; [11],55
same,"Plant response rating, Ragweed",[3]; [12],60
same,"Plant response rating, Ragweed",[3]; [13],80
same,pest or weed control at 125 g/ha,"[4]; post-emergence, Postemergence, 0 to 100 scale, 0 is no effect, 100 is complete control, read-out: Foxtail, Giant plant response rating",80%
same,pest or weed control at 500 g/ha,"[4]; post-emergence, Postemergence, visual rating on 0 to 100 scale (0 no effect, 100 complete control), approximately ten days, read-out: Foxtail, Giant plant response rating",90%
same,pest or weed control at 125 g/ha,"[4]; pre-emergence, Preemergence, 0 to 100 scale (0 no effect, 100 complete control), read-out: Plant response rating, Foxtail, Giant",100%
same,pest or weed control at 500 g/ha,"[4]; pre-emergence, Preemergence, 0 to 100 scale, 0 is no effect, 100 is complete control, read-out: Plant response rating, Foxtail, Giant",100%
same,pest or weed control at 125 g/ha,"[5]; post-emergence, Postemergence, 0 to 100 scale, 0 is no effect, 100 is complete control, read-out: Velvetleaf plant response rating",100%
same,pest or weed control at 500 g/ha,"[5]; post-emergence, Postemergence, visual rating on 0 to 100 scale (0 no effect, 100 complete control), approximately ten days, read-out: Velvetleaf plant response rating",100%
same,pest or weed control at 125 g/ha,"[5]; pre-emergence, Preemergence, 0 to 100 scale (0 no effect, 100 complete control), read-out: Plant response rating, Velvetleaf",70%
same,pest or weed control at 500 g/ha,"[5]; pre-emergence, Preemergence, 0 to 100 scale, 0 is no effect, 100 is complete control, read-out: Plant response rating, Velvetleaf",90%
same,plant injury at 125 g/ha,"[6]; post-emergence, Postemergence, 0 to 100 scale, 0 is no effect, 100 is complete control, read-out: Wheat plant response rating",30%
same,plant injury at 500 g/ha,"[6]; post-emergence, Postemergence, visual rating on 0 to 100 scale (0 no effect, 100 complete control), approximately ten days, read-out: Wheat plant response rating",50%
same,plant injury at 125 g/ha,"[6]; pre-emergence, Preemergence, 0 to 100 scale (0 no effect, 100 complete control), read-out: Plant response rating, Wheat",30%
same,plant injury at 500 g/ha,"[6]; pre-emergence, Preemergence, 0 to 100 scale, 0 is no effect, 100 is complete control, read-out: Plant response rating, Wheat",50%
same,pest or weed control at 125 g/ha,"[7]; post-emergence, Postemergence, 0 to 100 scale, 0 is no effect, 100 is complete control, read-out: Crabgrass, Large plant response rating",80%
same,pest or weed control at 500 g/ha,"[7]; post-emergence, Postemergence, visual rating on 0 to 100 scale (0 no effect, 100 complete control), approximately ten days, read-out: Crabgrass, Large plant response rating",90%
same,pest or weed control at 125 g/ha,"[7]; pre-emergence, Preemergence, 0 to 100 scale (0 no effect, 100 complete control), read-out: Plant response rating, Crabgrass, Large",90%
same,pest or weed control at 500 g/ha,"[7]; pre-emergence, Preemergence, 0 to 100 scale, 0 is no effect, 100 is complete control, read-out: Plant response rating, Crabgrass, Large",100%
same,"Plant response rating, Blackgrass",[8]; [10],15
same,"Plant response rating, Blackgrass",[8]; [11],40
same,"Plant response rating, Blackgrass",[8]; [12],60
same,"Plant response rating, Blackgrass",[8]; [13],85
same,"Plant response rating, Blackgrass",[8]; [14],5
same,"Plant response rating, Blackgrass",[8]; [21],40
same,"Plant response rating, Blackgrass",[8]; [16],85
same,"Plant response rating, Blackgrass",[8]; [17],98
same,pest or weed control at 125 g/ha,"[9]; post-emergence, Postemergence, 0 to 100 scale, 0 is no effect, 100 is complete control, read-out: Pigweed plant response rating",100%
same,pest or weed control at 500 g/ha,"[9]; post-emergence, Postemergence, visual rating on 0 to 100 scale (0 no effect, 100 complete control), approximately ten days, read-out: Pigweed plant response rating",100%
same,pest or weed control at 125 g/ha,"[9]; pre-emergence, Preemergence, 0 to 100 scale (0 no effect, 100 complete control), read-out: Plant response rating, Pigweed",90%
same,pest or weed control at 500 g/ha,"[9]; pre-emergence, Preemergence, 0 to 100 scale, 0 is no effect, 100 is complete control, read-out: Plant response rating, Pigweed",100%
Cc1nn(-c2ccc(C(F)(F)F)cn2)nc1Cc1cccc(C(F)(F)F)c1 [Compound 106],"Plant response rating, Morningglory",[1]; [10],0
same,"Plant response rating, Morningglory",[1]; [11],20
same,"Plant response rating, Morningglory",[1]; [12],40
same,"Plant response rating, Morningglory",[1]; [13],40
same,"Plant response rating, Morningglory",[1]; [14],0
same,"Plant response rating, Morningglory",[1]; [15],0
same,"Plant response rating, Morningglory",[1]; [16],10
same,"Plant response rating, Morningglory",[1]; [17],60
same,"Plant response rating, Chickweed",[2]; [18],60
same,"Plant response rating, Chickweed",[2]; [19],70
same,"Plant response rating, Chickweed",[2]; [20],95
same,"Plant response rating, Chickweed","[2]; 250 g ai/ha, scale 0 to 100",98
same,"Plant response rating, Ragweed",[3]; [10],10
same,"Plant response rating, Ragweed",[3]; [11],55
same,"Plant response rating, Ragweed",[3]; [12],60
same,"Plant response rating, Ragweed",[3]; [13],60
same,"Plant response rating, Ragweed",[3]; [14],0
same,"Plant response rating, Ragweed",[3]; [15],0
same,"Plant response rating, Ragweed",[3]; [16],0
same,"Plant response rating, Ragweed",[3]; [17],55
same,Velvetleaf plant response rating,[5]; [22],70
same,Velvetleaf plant response rating,[5]; [23],0
same,Wheat plant response rating,[6]; [22],10
same,Wheat plant response rating,[6]; [23],0
same,"Crabgrass, Large plant response rating",[7]; [22],80
same,"Crabgrass, Large plant response rating",[7]; [23],90
same,"Plant response rating, Blackgrass",[8]; [10],30
same,"Plant response rating, Blackgrass",[8]; [11],40
same,"Plant response rating, Blackgrass",[8]; [12],45
same,"Plant response rating, Blackgrass",[8]; [13],60
same,"Plant response rating, Blackgrass",[8]; [14],50
same,"Plant response rating, Blackgrass",[8]; [21],50
same,"Plant response rating, Blackgrass",[8]; [16],90
same,"Plant response rating, Blackgrass",[8]; [17],95
same,Pigweed plant response rating,[9]; [22],100
same,Pigweed plant response rating,[9]; [23],90
